The subject of test [1] is Mus musculus. The experiment in a line: Anti-asthmatic activity against ovalbumin-induced asthmatic mouse model assessed as decrease in IgE level in serum administered orally once daily for 7 days by ELISA. It counts as functional, organism-based. The note with it: dose 10-20 mg/kg, route po, time 7.0 day, DDE = dose-dependent effect.
Test [2] concerns Mus musculus. The experiment in a line: Decrease in CysLT receptor expression in bronchus in ovalbumin-induced asthmatic mouse model administered orally once daily for 7 days by Western blot analysis. Particulars: dose 10-20 mg/kg, route po, time 7.0 day, DDE = dose-dependent effect. It counts as functional.
Test [3] deals with T1, Beta-2 adrenergic receptor (Homo sapiens, UniProt P07550). The experiment in a line: Binding affinity to immobilized Halo tag-fused beta2 adrenoceptor (unknown origin) expressed in Escherichia coli BL21 (DE3) by receptor chromatography.
Target sequence in this assay (P07550 whole entry, looked up, the tested form may be a part): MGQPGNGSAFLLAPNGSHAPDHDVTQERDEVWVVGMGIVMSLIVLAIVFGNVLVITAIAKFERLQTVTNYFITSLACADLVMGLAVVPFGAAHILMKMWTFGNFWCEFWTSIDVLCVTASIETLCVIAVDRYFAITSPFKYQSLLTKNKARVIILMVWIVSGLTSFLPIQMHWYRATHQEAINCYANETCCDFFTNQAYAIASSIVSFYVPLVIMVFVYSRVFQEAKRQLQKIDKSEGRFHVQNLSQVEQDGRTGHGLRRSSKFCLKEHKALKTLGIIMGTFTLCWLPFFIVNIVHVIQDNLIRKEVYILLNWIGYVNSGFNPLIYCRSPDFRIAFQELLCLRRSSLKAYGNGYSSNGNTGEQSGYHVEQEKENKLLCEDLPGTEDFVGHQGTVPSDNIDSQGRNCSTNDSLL
Test [4] has as its target T1, Beta-2 adrenergic receptor. The experiment in a line: Binding affinity to immobilized Halo tag-fused beta2 adrenoceptor (unknown origin) expressed in Escherichia coli BL21 (DE3) assessed as association rate constant by receptor chromatography.
Target sequence in this assay (P07550 whole entry, looked up, the tested form may be a part): as above
The target of test [5] is T1, Beta-2 adrenergic receptor. As to the kind of experiment: Binding affinity to immobilized Halo tag-fused beta2 adrenoceptor (unknown origin) expressed in Escherichia coli BL21 (DE3) assessed as dissociation rate constant by receptor chromatography.
Target sequence in this assay (P07550 whole entry, the tested form may be a part): as the sequence (P07550 whole entry, looked up, the tested form may be a part) above
For test [6], the target named is T2, Uracil nucleotide/cysteinyl leukotriene receptor (Homo sapiens, UniProt Q13304).
Description: Binding affinity to immobilized Halo tag-fused CysLT receptor (unknown origin) expressed in Escherichia coli BL21 (DE3) assessed as association rate constant by receptor chromatography
The test system of test [7] is Mus musculus. The experiment in a line: Anti-asthmatic activity against ovalbumin-induced asthmatic mouse model assessed as infiltration of inflammatory cells in the perivascular and peribronchiolar region of lungs at 10 to 20 mg/kg, po administered once daily for 7 days by H and E staining based light microscopic analysis. Particulars: dose 10-20 mg/kg, time 7.0 day. It counts as functional, organism-based.

In test [8] the test system is Mus musculus. The experiment in a line: Anti-asthmatic activity against ovalbumin-induced asthmatic mouse model assessed as decrease in IL-13 level in BALF administered orally once daily for 7 days by ELISA. Particulars: dose 10-20 mg/kg, route po, time 7.0 day, DDE = dose-dependent effect. It counts as functional, organism-based.
Test [9] has as its system Mus musculus. The experiment in a line: Anti-asthmatic activity against ovalbumin-induced asthmatic mouse model assessed as decrease in IL-4 level in BALF administered orally once daily for 7 days by ELISA. It counts as functional, organism-based. Particulars: dose 10-20 mg/kg, route po, time 7.0 day, DDE = dose-dependent effect. Background: In an ELISA, binding on a coated surface is turned into a signal by an enzyme label.

Test [10] addresses T2, Uracil nucleotide/cysteinyl leukotriene receptor. As to the kind of experiment: Binding affinity to immobilized Halo tag-fused CysLT receptor (unknown origin) expressed in Escherichia coli BL21 (DE3) assessed as dissociation rate constant by receptor chromatography.
The subject of test [11] is Mus musculus. The experiment in a line: Increase in beta2 adrenoceptor expression in bronchus in ovalbumin-induced asthmatic mouse model administered orally once daily for 7 days by Western blot analysis. Particulars: dose 10-20 mg/kg, route po, time 7.0 day, DDE = dose-dependent effect. It counts as functional. On the technique in general: Immunoblotting shows a protein as a band on a membrane.

The subject of test [12] is Mus musculus. As to the kind of experiment: Anti-asthmatic activity against ovalbumin-induced asthmatic mouse model assessed as infiltration of inflammatory cells in the perivascular and peribronchiolar region of lungs at 20 mg/kg, po administered once daily for 7 days by H and E staining based light microscopic analysis. It counts as functional, organism-based. Particulars: time 7.0 day.

Test [13] has as its target T1, Beta-2 adrenergic receptor. As to the kind of experiment: Binding affinity to immobilized Halo tag-fused beta2 adrenoceptor (unknown origin) expressed in Escherichia coli BL21 (DE3) assessed as retention time by chromatography.
Target sequence in this assay (P07550 whole entry, looked up, the tested form may be a part): as above
Test [14] has as its system Mus musculus. As to the kind of experiment: Increase in beta2 adrenoceptor expression in bronchus in ovalbumin-induced asthmatic mouse model at 2.6 mg/kg, po administered once daily for 7 days by Western blot analysis. It counts as functional, organism-based. The note with it: time 7.0 day.
The test system of test [15] is Mus musculus. The experiment in a line: Anti-asthmatic activity against ovalbumin-induced asthmatic mouse model assessed as decrease in IgE level in serum at 2.6 mg/kg, po administered once daily for 7 days by ELISA. It counts as functional, organism-based. Particulars: time 7.0 day.
The test system of test [16] is Mus musculus. The experiment in a line: Anti-asthmatic activity against ovalbumin-induced asthmatic mouse model assessed as infiltration of inflammatory cells in the perivascular and peribronchiolar region of lungs at 2.6 mg/kg, po administered once daily for 7 days by H and E staining based light microscopic analysis. It counts as functional, organism-based. Particulars: time 7.0 day.

The test system of test [17] is Mus musculus. As to the kind of experiment: Anti-asthmatic activity against ovalbumin-induced asthmatic mouse model assessed as decrease in IL-5 level in BALF at 2.6 mg/kg, po administered once daily for 7 days by ELISA. The note with it: time 7.0 day. It counts as functional, organism-based.
Test [18] has as its system Mus musculus. The experiment in a line: Anti-asthmatic activity against ovalbumin-induced asthmatic mouse model assessed as decrease in IL-4 level in BALF at 2.6 mg/kg, po administered once daily for 7 days by ELISA. It counts as functional, organism-based. The note with it: time 7.0 day.
In test [19] the target is T2, Uracil nucleotide/cysteinyl leukotriene receptor. This is another data set of the same source.
Description: Binding affinity to immobilized Halo tag-fused CysLT receptor (unknown origin) expressed in Escherichia coli BL21 (DE3) assessed as retention time by chromatography

The source made the active and inactive calls. The calls are words filed in the database; no cut-off is given here.

T2 sequence (Q13304 whole entry): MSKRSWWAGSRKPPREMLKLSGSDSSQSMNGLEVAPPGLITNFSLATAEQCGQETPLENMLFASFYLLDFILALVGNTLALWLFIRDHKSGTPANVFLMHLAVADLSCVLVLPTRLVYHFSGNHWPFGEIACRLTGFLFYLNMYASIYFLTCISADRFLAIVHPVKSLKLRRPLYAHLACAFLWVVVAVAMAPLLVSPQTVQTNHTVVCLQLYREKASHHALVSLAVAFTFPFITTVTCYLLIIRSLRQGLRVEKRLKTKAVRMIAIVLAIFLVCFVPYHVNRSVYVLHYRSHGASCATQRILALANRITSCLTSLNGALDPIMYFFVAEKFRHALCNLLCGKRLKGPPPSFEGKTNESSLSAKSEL

Turning to `CC1(C)[C@@H](O)CC[C@]2(C)[C@H]3C(=O)C=C4[C@@H]5C[C@@](C)(C(=O)NCCc6ccc(O)cc6)CC[C@]5(C)CC[C@@]4(C)[C@]3(C)CC[C@@H]12`, the Activity entry in test [1], in test [8], in test [9] and in test [11] was “Dde” throughout. For the same compound, the inhibition result in [2] is “Dde”. In [3], the K was 6.57 10^4/M. For the same compound, the Ka in test [4] is 4.94 10^5/M/s; in test [6], 4.85 10^5/M/s. Further, the figures for the Kd in test [5] and in test [10] were 7.52 s⁻¹ and 17.2 s⁻¹, respectively. Moreover, the outcome in [7] was Active.
`CC1(C)[C@@H](O)CC[C@]2(C)[C@H]3C(=O)C=C4[C@@H]5C[C@@](C)(C(=O)O)CC[C@]5(C)CC[C@@]4(C)[C@]3(C)CC[C@@H]12`: the outcome in test [12] was Active.
For `CNC(C)Cc1ccccc1OC` (stereo unspecified) [METHOXYPHENAMINE], the K in test [3] is 0.5 10^4/M. Also, the Ka in test [4] is 1.93 10^5/M/s. For the same compound, in test [5], the Kd stood at 0.98 s⁻¹. For the same compound, in test [13], the Retention time was 3.6 min.
As to `CN(C)C(=O)Oc1cc(OC(=O)N(C)C)cc(C(O)CNC(C)(C)C)c1` (stereo unspecified), the outcome in test [14], in test [15], in [16], in test [17] and in test [18] was Active. Also, the Retention time in test [13] was determined as 4.1 min.
`CC(c1cc2ccccc2s1)N(O)C(N)=O` (stereo unspecified) registered a Retention time in test [19] of 3.5 min.
As for `CC(C)(O)c1ccccc1CC[C@@H](SCC1(CC(=O)[O-])CC1)c1cccc(/C=C/c2ccc3ccc(Cl)cc3n2)c1.[Na+]` [MONTELUKAST SODIUM], in test [6], the Ka is 5.18 10^5/M/s. This compound returned a Retention time in test [19] of 8.7 min. Further, the Kd in test [10] amounted to 12.6 s⁻¹.

(Values after ChEMBL document CHEMBL5154767, “Discovery of dual-target ligands binding to beta2-adrenoceptor and cysteinyl-leukotriene receptor for the potential treatment of asthma from natural products derived DNA-encoded library” (Eur J Med Chem, 2022).)
